Data reported in patent US10689367B2, “Triazole pyridyl compounds as agonists of the APJ receptor” (AMGEN INC., priority 2016, dated 2020).

Target: human APJ receptor (Homo sapiens (Human), UniProt P35414)
Assay: [35S]GTPγS binding assay on membranes from CHO cells stably expressing human APJ receptor
Assay type: biochemical
Details: membranes of CHO cells stably expressing human APJ receptor, read-out: Activity hAPJ SPA EC50 IP
In short: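 Agonist EC50 values come from non-linear regression of mean data from several independent runs. Membranes of CHO cells stably expressing human APJ were incubated 90 min at room temperature with [35S]GTPγS in buffer with optimized GDP, MgCl2 and NaCl, then read on a microplate imager.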

human APJ receptor, sequence (P35414 whole entry): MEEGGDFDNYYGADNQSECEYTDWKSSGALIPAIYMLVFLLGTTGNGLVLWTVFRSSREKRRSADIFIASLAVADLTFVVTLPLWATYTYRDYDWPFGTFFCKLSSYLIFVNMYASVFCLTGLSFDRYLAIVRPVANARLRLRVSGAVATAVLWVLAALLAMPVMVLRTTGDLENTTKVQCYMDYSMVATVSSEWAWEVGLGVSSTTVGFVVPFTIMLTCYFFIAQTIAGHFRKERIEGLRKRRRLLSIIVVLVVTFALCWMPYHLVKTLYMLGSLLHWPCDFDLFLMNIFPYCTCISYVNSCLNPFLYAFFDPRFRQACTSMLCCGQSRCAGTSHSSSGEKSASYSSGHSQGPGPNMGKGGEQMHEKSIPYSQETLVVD

Molecule | EC50
CCOCCn1c(NS(=O)(=O)[C@@H](C)[C@H](OC)c2ncc(Cl)cn2)nnc1-c1cccc(OC)n1 [Example 22.0, (1R,2S)-1-(5-chloro-2-pyrimidinyl)-N-(4-(2-ethoxyethyl)-5-(6-methoxy-2-pyridinyl)-4H-1,2,4-triazol-3-yl)-1-methoxy-2-propanesulfonamide] | 3.2 nM
COCC1(n2c(NS(=O)(=O)[C@@H](C)[C@H](OC)c3ncc(C)cn3)nnc2-c2ccccn2)CC1 [Example 67.0] | 24 nM
COCC(COC)n1c(NS(=O)(=O)[C@@H](C)[C@H](C)c2cnc(C)cn2)nnc1-c1cccnc1 [Example 17.0, (2S,3R)-N-(4-(1,3-dimethoxy-2-propanyl)-5-(3-pyridinyl)-4H-1,2,4-triazol-3-yl)-3-(5-methyl-2-pyrazinyl)-2-butanesulfonamide] | 380 nM
CCn1c(NS(=O)(=O)[C@@H](C)[C@H](OC)c2ncc(Cl)cn2)nnc1-c1ccccn1 [Example 131.0] | 25 nM
COc1cccc(-c2nnc(NS(=O)(=O)[C@@H](C)[C@H](C)c3ncc(Cl)cn3)n2[C@@H](C)c2ncn(C)n2)n1 (single isomer, unassigned) [Example 238.0, (2S,3R)-3-(5-chloro-2-pyrimidinyl)-N-(5-(6-methoxy-2-pyridinyl)-4-((1R)-1-(1-methyl-1H-1,2,4-triazol-3-yl)ethyl)-4H-1,2,4-triazol-3-yl)-2-butanesulfonamide or (2S,3R)-3-(5-chloro-2-pyrimidinyl)-N-(5-(6-methoxy-2-pyridinyl)-4-((1S)-1-(1-methyl-1H-1,2,4-triazol-3-yl)ethyl)-4H-1,2,4-triazol-3-yl)-2-butanesulfonamide] | 6.2 nM
COc1cccc(-c2nnc(NS(=O)(=O)[C@@H](C)[C@H](OC)c3ncc(Cl)cn3)n2[C@@H]2[C@@H](OC)CCC[C@H]2OC)n1 [Example 185.0, (1R,2S)-1-(5-chloro-2-pyrimidinyl)-N-(4-((1r,2R,6 S)-2,6-dimethoxycyclohexyl)-5-(6-methoxy-2-pyridinyl)-4H-1,2,4-triazol-3-yl)-1-methoxy-2-propanesulfonamide] | 7.2 nM
COc1cccc(-c2nnc(NS(=O)(=O)[C@@H](C)[C@H](OC)c3ncc(Cl)cn3)n2CCC(N)=O)n1 [Example 45.0] | 60 nM
COc1cccc(-c2nnc(NS(=O)(=O)[C@@H](C)[C@H](OC)c3ncc(Cl)cn3)n2CCc2ccccn2)n1 [Example 283.0, (1R,2S)-1-(5-chloropyrimidin-2-yl)-1-methoxy-N-(5-(6-methoxypyridin-2-yl)-4-(2-(pyridin-2-yl)ethyl)-4H-1,2,4-triazol-3-yl)propane-2-sulfonamide] | 69 nM
COc1cccc(-c2nnc(NS(=O)(=O)[C@@H](C)[C@@H](OC(C)C)c3ncc(C)cn3)n2[C@@H](C)c2ncc(C)o2)n1 (single isomer, unassigned) [Example 242.0, (1S,2S)-N-(5-(6-methoxy-2-pyridinyl)-4-((1S)-1-(5-methyl-1,3-oxazol-2-yl)ethyl)-4H-1,2,4-triazol-3-yl)-1-(5-methyl-2-pyrimidinyl)-1-(2-propanyloxy)-2-propanesulfonamide or (1S,2S)-N-(5-(6-methoxy-2-pyridinyl)-4-((1S)-1-(5-methyl-1,3-oxazol-2-yl)ethyl)-4H-1,2,4-triazol-3-yl)-1-(5-methyl-2-pyrimidinyl)-1-(2-propanyloxy)-2-propanesulfonamide] | 13 nM
COC[C@@H](C)n1c(NS(=O)(=O)[C@@H](C)[C@H](C)c2ncc(Cl)cn2)nnc1-c1cccnc1 (single isomer, unassigned) [Example 53.0] | 30 nM
COC[C@@H](C)n1c(NS(=O)(=O)[C@@H](C)[C@H](OC)c2ncc(Cl)cn2)nnc1-c1ccccn1 [Example 124.0] | 24 nM
COc1cccc(-c2nnc(NS(=O)(=O)[C@@H](C)[C@H](OC)c3ncc(Cl)cn3)n2C2C3(CC3)C23CC3)n1 [Example 163.0, (1R,2S)-1-(5-Chloropyrimidin-2-yl)-N-(4-(dispiro[2.0.24.13]heptan-7-yl)-5-(6-methoxypyridin-2-yl)-4H-1,2,4-triazol-3-yl)-1-methoxypropane-2-sulfonamide] | 52 nM
CO[C@H](c1cnc(C)cn1)[C@H](C)S(=O)(=O)Nc1nnc(-c2ccccn2)n1C1(C2CC2)CC1 [Example 110.0] | 110 nM
COc1cccc(-c2nnc(NS(=O)(=O)[C@@H](C)[C@H](OC)c3cnc(C)cn3)n2Cc2ccno2)n1 [Example 206.0, (1R,2S)-1-methoxy-N-(5-(6-methoxy-2-pyridinyl)-4-(1,2-oxazol-5-ylmethyl)-4H-1,2,4-triazol-3-yl)-1-(5-methyl-2-pyrazinyl)-2-propanesulfonamide] | 210 nM
COc1cccc(-c2nnc(NS(=O)(=O)[C@@H](C)[C@H](C)c3ncc(Cl)cn3)n2[C@H](c2conc2C)C2CC2)n1 (mixture of isomers) [Example 228.0, (2S,3R)-3-(5-chloro-2-pyrimidinyl)-N-(4-((S)-cyclopropyl(3-methyl-1,2-oxazol-4-yl)methyl)-5-(6-methoxy-2-pyridinyl)-4H-1,2,4-triazol-3-yl)-2-butanesulfonamide and (2S,3R)-3-(5-chloro-2-pyrimidinyl)-N-(4-((R)-cyclopropyl(3-methyl-1,2-oxazol-4-yl)methyl)-5-(6-methoxy-2-pyridinyl)-4H-1,2,4-triazol-3-yl)-2-butanesulfonamide] | 0.88 nM
COc1cccc(-c2nnc(NS(=O)(=O)[C@@H](C)[C@H](C)c3ncc(Cl)cn3)n2Cc2cc(C)no2)n1 [Example 190.0, (2S,3R)-3-(5-chloropyrimidin-2-yl)-N-(5-(6-methoxypyridin-2-yl)-4((3-methylisoxazol-5-yl)methyl)-4H-1,2,4-triazol-3-yl)butane-2-sulfonamide] | 26 nM
COc1cccc(-c2nnc(NS(=O)(=O)[C@@H](C)[C@H](OC)c3ncc(Cl)cn3)n2[C@@H](C)c2ccno2)n1 (mixture of isomers) [Example 200.0, (1R,2S)-1-(5-chloro-2-pyrimidinyl)-1-methoxy-N-(5-(6-methoxy-2-pyridinyl)-4-((1R)-1-(1,2-oxazol-5-yl)ethyl)-4H-1,2,4-triazol-3-yl)-2-propanesulfonamide and (1R,2S)-1-(5-chloro-2-pyrimidinyl)-1-methoxy-N-(5-(6-methoxy-2-pyridinyl)-4-((1S)-1-(1,2-oxazol-5-yl)ethyl)-4H-1,2,4-triazol-3-yl)-2-propanesulfonamide] | 0.87 nM
COc1cccc(-c2nnc(NS(=O)(=O)[C@@H](C)[C@H](OC)c3cnc(C)cn3)n2C2(C3CC3)CC2)n1 [Example 109.0] | 9.6 nM
COc1cccc(-c2nnc(NS(=O)(=O)[C@@H](C)[C@H](OC)c3ncc(Cl)cn3)n2[C@H](C)[C@@H]2CCCCO2)n1 (single isomer, unassigned) [Example 317.0] | 0.71 nM
COCCn1c(NS(=O)(=O)[C@@H](C)[C@H](C)c2ncc(OC)cn2)nnc1-c1cccc(OC)n1 [Example 20.0, (2S,3R)-N-(4-(2-methoxyethyl)-5-(6-methoxy-2-pyridinyl)-4H-1,2,4-triazol-3-yl)-3-(5-methoxy-2-pyrimidinyl)-2-butanesulfonamide] | 110 nM
(1R,2S)-1-(5-chloropyrimidin-2-yl)-1-methoxy-N-(5-(6-methoxypyridin-2-yl)-4-(((S)-oxetan-2-yl)methyl)-4H-1,2,4-triazol-3-yl)propane-2-sulfonamide or (1R,2S)-1-(5-chloropyrimidin-2-yl)-1-methoxy-N-(5-(6-methoxypyridin-2-yl)-4-(((R)-oxetan-2-yl)methyl)-4H-1,2,4-triazol-3-yl)propane-2-sulfonamide [Example 140.0] | 42 nM
COC[C@@H](C)n1c(NS(=O)(=O)[C@@H](C)[C@H](OC)c2ncc(Cl)cn2)nnc1-c1cncc(C)c1 [Example 126.0] | 38 nM
CC[C@@H](C)n1c(NS(=O)(=O)[C@@H](C)[C@H](OC)c2ncc(Cl)cn2)nnc1-c1cccc(OC)n1 (single isomer, unassigned) [Example 55.0] | 0.4 nM
COc1cccc(-c2nnc(NS(=O)(=O)[C@@H](C)[C@@H](OC(C)C)c3ncc(C)cn3)n2C[C@H]2CCCCO2)n1 (single isomer, unassigned) [Example 300.0, (1S,2S)-1-isopropoxy-N-(5-(6-methoxypyridin-2-yl)-4-(((R)-tetrahydro-2H-pyran-2-yl)methyl)-4H-1,2,4-triazol-3-yl)-1-(5-methylpyrimidin-2-yl)propane-2-sulfonamide or (1S,2S)-1-isopropoxy-N-(5-(6-methoxypyridin-2-yl)-4-(((S)-tetrahydro-2H-pyran-2-yl)methyl)-4H-1,2,4-triazol-3-yl)-1-(5-methylpyrimidin-2-yl)propane-2-sulfonamide] | 14 nM
COc1cccc(-c2nnc(NS(=O)(=O)[C@@H](C)[C@H](OC)c3ncc(Cl)cn3)n2[C@@H](C)c2ncn(C)n2)n1 (single isomer, unassigned) [Example 236.0, (1R,2S)-1-(5-chloro-2-pyrimidinyl)-1-methoxy-N-(5-(6-methoxy-2-pyridinyl)-4-((1R)-1-(1-methyl-1H-1,2,4-triazol-3-yl)ethyl)-4H-1,2,4-triazol-3-yl)-2-propanesulfonamide or (1R,2S)-1-(5-chloro-2-pyrimidinyl)-1-methoxy-N-(5-(6-methoxy-2-pyridinyl)-4-((1S)-1-(1-methyl-1H-1,2,4-triazol-3-yl)ethyl)-4H-1,2,4-triazol-3-yl)-2-propanesulfonamide] | 7.2 nM
COc1cccc(-c2nnc(NS(=O)(=O)[C@@H](C)[C@H](OC)c3ncc(Cl)cn3)n2[C@H](C)c2cnn(C)c2)n1 (single isomer, unassigned) [Example 339.0, (1R,2S)-1-(5-chloropyrimidin-2-yl)-1-methoxy-N-(5-(6-methoxypyridin-2-yl)-4-((R)-1-(1-methyl-1H-pyrazol-4-yl)ethyl)-4H-1,2,4-triazol-3-yl)propane-2-sulfonamide or (1R,2S)-1-(5-chloropyrimidin-2-yl)-1-methoxy-N-(5-(6-methoxypyridin-2-yl)-4-((S)-1-(1-methyl-1H-pyrazol-4-yl)ethyl)-4H-1,2,4-triazol-3-yl)propane-2-sulfonamide] | 3.1 nM
